Measured values taken from article PMC8343220, “The selectivity of α‐adrenoceptor agonists for the human α1A, α1B, and α1D‐adrenoceptors” (Pharmacology Research & Perspectives, 2021).

Columns and labels:
[1] = biological target: T1, human α1D‐adrenoceptor (full length) (Homo sapiens, UniProt P25100); experiment: ERK1/2‐phosphorylation (Surefire Alphascreen), CHO‐α1D cells; format: cell-based; details: CHO‐α1D cells; for ERK1/2‐phosphorylation % PDBu: maximal response as % of PDBu
T1 construct: human α1D‐adrenoceptor (full length) were used; expressed in transfected cells; host or cells: CHO-K1
T1 sequence (P25100 1-572): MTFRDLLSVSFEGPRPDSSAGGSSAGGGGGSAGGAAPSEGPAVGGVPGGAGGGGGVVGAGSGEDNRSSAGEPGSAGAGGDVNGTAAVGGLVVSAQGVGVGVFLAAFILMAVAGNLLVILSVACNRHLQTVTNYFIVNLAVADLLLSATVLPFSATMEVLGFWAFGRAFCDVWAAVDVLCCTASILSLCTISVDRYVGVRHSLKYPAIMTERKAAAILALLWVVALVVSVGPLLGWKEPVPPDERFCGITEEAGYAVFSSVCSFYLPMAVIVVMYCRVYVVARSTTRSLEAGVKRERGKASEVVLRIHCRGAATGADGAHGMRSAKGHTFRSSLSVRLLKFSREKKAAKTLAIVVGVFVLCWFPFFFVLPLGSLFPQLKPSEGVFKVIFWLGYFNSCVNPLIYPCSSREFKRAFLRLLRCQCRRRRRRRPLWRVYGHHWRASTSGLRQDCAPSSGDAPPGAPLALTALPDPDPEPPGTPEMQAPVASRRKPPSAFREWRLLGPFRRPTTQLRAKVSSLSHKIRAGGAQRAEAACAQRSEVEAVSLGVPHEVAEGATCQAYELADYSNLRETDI

[2] = test system: parental CHO cell line without any transfected receptors; experiment: ERK1/2‐phosphorylation, parent CHO cells without transfected receptors; format: cell-based, Chinese hamster
[3] = biological target: T1, human α1D‐adrenoceptor (full length); experiment: Intracellular free calcium mobilization, CHO‐α1D cells; format: cell-based; details: CHO‐α1D cells; for Intracellular calcium release % ionomycin: maximal response as % of 10 µM ionomycin
human α1B‐adrenoceptor [4] = biological target: T2, human α1B‐adrenoceptor (Homo sapiens, UniProt P35368); details: CHO‐α1B cells, ref Proudman et al., 2020, cited from earlier work; for Log KD α1B, ^3H‐prazosin whole cell binding: given as log KD (negative), ligands marked ^a
T2 construct: expressed in transfected cells; host or cells: CHO-K1
T2 sequence (P35368 1-520): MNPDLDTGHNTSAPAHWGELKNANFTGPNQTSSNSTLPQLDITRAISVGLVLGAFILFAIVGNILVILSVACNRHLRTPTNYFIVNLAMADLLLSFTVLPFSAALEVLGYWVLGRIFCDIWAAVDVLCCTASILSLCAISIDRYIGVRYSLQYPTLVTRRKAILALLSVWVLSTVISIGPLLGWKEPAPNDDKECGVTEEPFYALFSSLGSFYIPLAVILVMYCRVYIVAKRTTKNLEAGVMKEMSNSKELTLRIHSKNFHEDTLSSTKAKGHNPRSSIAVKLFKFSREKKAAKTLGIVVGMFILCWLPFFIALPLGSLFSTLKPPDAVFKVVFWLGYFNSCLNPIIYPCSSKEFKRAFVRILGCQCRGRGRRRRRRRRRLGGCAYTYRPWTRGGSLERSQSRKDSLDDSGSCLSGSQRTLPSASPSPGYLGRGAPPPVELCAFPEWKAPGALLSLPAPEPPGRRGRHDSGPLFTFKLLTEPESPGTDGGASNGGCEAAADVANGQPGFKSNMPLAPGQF

[5] = biological target: T1, human α1D‐adrenoceptor (full length); details: CHO‐α1D cells; ligands marked ^a; ref Proudman et al., 2020; cited from earlier work
human α1B‐adrenoceptor [6] = biological target: T2, human α1B‐adrenoceptor; experiment: ERK1/2‐phosphorylation (Surefire Alphascreen), CHO‐α1B cells; format: cell-based; details: CHO‐α1B cells; maximal response as % PDBu response; for bi‐phasic responses the initial stimulatory part
human α1A‐adrenoceptor [7] = biological target: T3, human α1A‐adrenoceptor (Homo sapiens, UniProt P35348); details: CHO‐α1A cells; given as log KD (negative); ligands marked ^a; ref Proudman et al., 2020; cited from earlier work
T3 construct: expressed in transfected cells; host or cells: CHO-K1
T3 sequence (P35348 1-466): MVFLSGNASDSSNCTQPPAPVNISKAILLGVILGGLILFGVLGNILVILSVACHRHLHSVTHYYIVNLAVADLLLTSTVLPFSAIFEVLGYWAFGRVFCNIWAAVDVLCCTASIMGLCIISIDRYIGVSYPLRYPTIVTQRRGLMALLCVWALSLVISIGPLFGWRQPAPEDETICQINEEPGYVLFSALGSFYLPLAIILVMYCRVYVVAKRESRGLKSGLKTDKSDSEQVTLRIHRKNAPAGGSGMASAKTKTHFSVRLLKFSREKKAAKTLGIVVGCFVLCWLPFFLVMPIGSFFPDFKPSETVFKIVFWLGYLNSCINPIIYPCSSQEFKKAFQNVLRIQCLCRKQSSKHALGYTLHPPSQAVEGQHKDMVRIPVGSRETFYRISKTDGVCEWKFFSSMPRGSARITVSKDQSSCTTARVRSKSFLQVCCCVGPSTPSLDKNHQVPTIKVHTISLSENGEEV

human α1A‐adrenoceptor [8] = biological target: T3, human α1A‐adrenoceptor; experiment: Intracellular free calcium mobilization, CHO‐α1A cells; format: cell-based; details: for Intracellular calcium release % ionomycin: maximal response as % of 10 µM ionomycin
human α1B‐adrenoceptor [9] = biological target: T2, human α1B‐adrenoceptor; experiment: Intracellular free calcium mobilization, CHO‐α1B cells; format: cell-based; details: CHO‐α1B cells; for Intracellular calcium release % Ionomycin at 100 µM: response at 100 µM ligand (no EC50 given), % of ionomycin response; for Intracellular calcium release Log EC50: given as log EC50 (negative numbers); for Intracellular calcium release % ionomycin: maximal response as % of 10 µM ionomycin response
human α1A‐adrenoceptor [10] = biological target: T3, human α1A‐adrenoceptor; experiment: ERK1/2‐phosphorylation (Surefire Alphascreen), CHO‐α1A cells; format: cell-based; details: CHO‐α1A cells; % of 10 µM PDBu; ^a bi‐phasic: initial stimulatory part
human α1A‐adrenoceptor [11] = biological target: T3, human α1A‐adrenoceptor; experiment: ^3H‐cAMP accumulation, CHO‐α1A cells; format: cell-based; details: CHO‐α1A cells; for cAMP accumulation Log EC50: 5 h; for cAMP accumulation % forskolin: % of 10 µM forskolin response
[12] = test system: parental CHO cell line without any transfected receptors; experiment: Forskolin‐stimulated cAMP accumulation, parent CHO cells without transfected receptors; format: cell-based, Chinese hamster; details: CHO cells without transfected receptors; in presence of forskolin
human α1A‐adrenoceptor [13] = biological target: T3, human α1A‐adrenoceptor; experiment: ^3H‐cAMP accumulation in the presence of 10 μM forskolin, CHO‐α1A cells; format: cell-based; details: CHO‐α1A cells; 10 μM forskolin
[14] = biological target: T1, human α1D‐adrenoceptor (full length); experiment: ^3H‐prazosin whole‐cell radioligand binding, CHO‐α1D cells
human α1A‐adrenoceptor [15] = biological target: T3, human α1A‐adrenoceptor; experiment: ^3H‐prazosin whole‐cell radioligand binding, CHO‐α1A cells
[16] = test system: parental CHO cell line without any transfected receptors; experiment: Intracellular calcium mobilization, parent CHO cells without transfected receptors; format: cell-based, Chinese hamster; details: Cricetulus griseus; CHO cells without transfected receptors; response at maximum concentration used (c2), as % of ionomycin (10μM) response; mean ± s.e.m.; read-out: Intracellular calcium release % ionomycin
[17] = CHO cells without transfected receptors, maximal response as % of PDBu (10μM) response, mean ± s.e.m.
[18] = CHO‐α1A cells, given as log EC50 (negative)
[19] = response at 100 µM ligand (no EC50 given)

Structure (SMILES)	ERK1/2‐phosphorylation % PDBu [1]	ERK1/2-phosphorylation % PDBu [2, 17]	Intracellular calcium release % ionomycin [3]	Log KD α1B, ^3H‐prazosin whole cell binding (human α1B‐adrenoceptor [4])	% site 1 (% of the response at the first component), α1D two‐component binding curve [5] [%]	ERK1/2‐phosphorylation % PDBu (human α1B‐adrenoceptor [6])	Log KD α1A, ^3H‐prazosin whole cell binding (human α1A‐adrenoceptor [7])	Intracellular calcium release Log EC50 (human α1A‐adrenoceptor [8]; [18])	Intracellular calcium release % ionomycin (human α1A‐adrenoceptor [8]; CHO‐α1A cells) [%]	Intracellular calcium release % Ionomycin at 100 µM (human α1B‐adrenoceptor [9]) [%]	ERK1/2‐phosphorylation % PDBu (human α1A‐adrenoceptor [10]) [%]	cAMP accumulation Log EC50 (human α1A‐adrenoceptor [11])	cAMP accumulation % forskolin (human α1A‐adrenoceptor [11])	cAMP accumulation (in presence of forskolin) Log EC50 [12]	cAMP accumulation (in presence of forskolin) Log EC50 (human α1A‐adrenoceptor [13])	Intracellular calcium release Log EC50 (human α1B‐adrenoceptor [9])	Intracellular calcium release % ionomycin (human α1B‐adrenoceptor [9])	further results
COc1ccccc1N1CCN(CCN2C(=O)c3ccccc3C(C)(C)C2=O)CC1 [ARC239]	No response	No response	No response	−8.15 ± 0.07	60.5 ± 1.4	No response	−9.35 ± 0.08	−7.99 ± 0.19	20.8 ± 2.0	4.8 ± 1.7	29.2 ± 3.8	−8.41 ± 0.23	1.2 ± 0.2%	No response				
COc1ccccc1N1CCN(CC2CN3C(=O)N(C)c4ccccc4C3=N2)CC1 (stereo not shown) [2‐MPMDQ]	No response		No response	−7.37 ± 0.04	64.0 ± 2.1	No response	−9.06 ± 0.07	−7.69 ± 0.08	19.7 ± 2.0	3.1 ± 1.5	13.6 ± 3.7	No response	No response		No response			
O=C1Nc2ccccc2C2=NC(CN3CCN(c4ccccc4)CC3)CN12 (stereo not shown) [2‐PMDQ]	No response		No response	−6.95 ± 0.05	57.6 ± 2.8		−8.19 ± 0.09	−7.63 ± 0.13	16.6 ± 1.8		10.4 ± 3.4	No response	No response		No response	No response	No response	
CC(C)(C)NCC(O)COc1cccc2[nH]c(=O)[nH]c12 (stereo not shown) [CGP 12177]	25.8 ± 3.2%		No response			38.1 ± 3.8%			37.0 ± 2.8		86.8 ± 2.6					No response	No response	Emax ([2]; Cricetulus griseus, CHO cells without transfected receptors, maximal response as % of PDBu (10μM) response, mean ± s.e.m., read-out: ERK1/2-phosphorylation % PDBu): 22.8 ± 4.3%; EC50 ([2]; Cricetulus griseus, CHO cells without transfected receptors, mean ± s.e.m., read-out: ERK1/2-phosphorylation Log EC50 (converted)): 977 nM; ERK1/2‐phosphorylation response in parent CHO cells ([2]; untransfected cells): stimulated ERK1/2‐phosphorylation responses; Intracellular calcium release Log EC50 ([3]; log values given negative): No response; Affinity selectivity ratio α1B vs α1D [14]: >1.6 fold; Affinity selectivity ratio α1A vs α1B (human α1A‐adrenoceptor [15]): >13.8 fold; Log IC50 α1B, ^3H‐prazosin whole cell binding (human α1B‐adrenoceptor [4]; printed as IC50> log value, ligand marked ^a): IC50>−4; Log efficacy ratio KD /EC50 (human α1A‐adrenoceptor [8]): 1.04; EC50 (human α1A‐adrenoceptor [8]; CHO‐α1A cells, given as log EC50 (negative), read-out: Intracellular calcium release Log EC50 (converted)): 661 nM
COc1ccccc1N1CCN(CCN2C(=O)CC3(CCCC3)CC2=O)CC1 [BMY7378]		No response			57.7 ± 2.6	No response			25.0 ± 3.4	8.0 ± 2.1	29.0 ± 4.7		No response	No response				ERK1/2‐phosphorylation % PDBu at 100 µM [1, 19]: 3.0 ± 1.5%; Intracellular calcium release % Ionomycin at 100 µM [3, 19]: 4.2 ± 1.0%; Emax [16]: 7.8 ± 2.2%
